Measurements published in patent US20240238425A1, “HSD17B13 Inhibitors and/or Degraders” (Pfizer Inc., priority 2022, published 2024).
Where a name gives a salt, the structure may show the parent alone.

Tested on: HiBiT-HSD17β13 fusion protein (N-terminal HiBiT-tagged HSD17β13 isoform D) in Huh7 HiBiT-HSD17β13 OE cells
Experiment: Whole-cell Huh7-HSD17B13 HiBiT assay (degrader potency and maximal efficacy, luminescence readout)
Format: cell-based, human
Conditions: 24 hour incubation, geometric mean, * = geometric mean for all forms tested (parent and salt forms); for DC50: read-out: Huh7_HIBIT-HSD17β13_DC50 GMean DC50; for Huh7_HIBIT-HSD17β13_DC50 GMean Asymptote Maximum: max. concentration 1 μM
Method: Degrader potency and maximal efficacy of test compounds were determined using a whole-cell Huh7-HSD17B13 HiBiT assay, utilizing a luminescence readout. A HiBiT tag was fused to the N-terminus of HSD17β13, and therefore the HiBiT luminescence signal produced in the assay was proportional to the level of HiBiT-HSD17β13 fusion protein in a sample.
A Huh7 HiBiT-HSD17β13 OE cell line was generated using electroporation with an N-terminal HiBiT-tagged HSD17β13 isoform D overexpression plasmid, followed by geneticin selection to produce a stable pool. Clones were created with varying HiBiT signals to optimize HiBiT HSD17 β13 ratios. A clone with similar HSD17β13 expression levels as human primary hepatocytes was selected for the compound screen.
Greiner 384-well white opaque, flat bottom, tissue culture treated plates (Greiner #781080) were used for both HiBiT and CTG assays. The treated plates were spotted with 25 nL of a compound which had been serial diluted 1 in 3.162 in 100% DMSO for an 11-point concentration response curve, with duplicate points at each concentration. The maximum concentration of the compounds was 1 mM, which was later diluted with cell suspension for a maximum concentration of 1 μM). High percentage effect (HPE) wells and zero percentage effect (ZPE) wells located in columns 1 and 24 were spotted with 25 nL of DMSO (Sigma #D2650) using an ECHO Acoustic Liquid Handler (Labcyte Echo 550 Series). Each plate was performed in duplicate.
The Huh7 HiBiT-HSD17β13 OE cells were plated on top of a compound or a DMSO control at 3,000 viable cells/well in 25 μL growth media (DMEM (Gibco #10569), 10% FBS HI (Gibco #16140), 1× Pen/Strep (Gibco #15070), 1×MEM Non-Essential Amino Acids (Gibco #11140), and 300 μg/mL Geneticin (Gibco #10131) in columns 2-24 of the plates. Huh7 parental cells were plated using the same parameters in column 1 (HPE) in the same culture medium, excluding Geneticin selection. Cells were incubated overnight with the compounds for 24 hours (with lid) at 37° C. ([…]).
Each assay was conducted after a 24 hour incubation period. In the HiBiT assay plates, 25 μL of complete Nano-Glo HiBiT Lytic detection system (Promega #PRN3040), consisting of HiBiT Lytic Buffer with the addition of 1:100 LgBiT Protein and 1:50 Substrate, was added to each well. In CTG counter screen plates, 25 μL of Cell Titer-Glo Luminescent Reagent (Promega #G7573) was added to each well. Both plates were centrifuged for 2 minutes at 1000 rpm and incubated at room temperature, in the dark, for 10 minutes. Then Luminescence was read using an EnVision Plate Reader (Perkin Elmer PE2103).
The raw data from the Envision Plate Reader was expressed as relative luminescence units (RLUs) for each well of the assay plates. Using HPE and ZPE controls, the % effect was calculated for each sample well as follows: Percent effect=[(sample RLU−HPE RLU)\(ZPE RLU−HPE RLU)]*100. The percent effect was plotted versus the compound concentration and a 50% degradation ([…]) was determined using a four-parameter logistic dose response equation. The raw data was analyzed using ABase (IDBS).

For `Cn1c(=O)n(C2CCC(=O)NC2=O)c2ccc(CCCN3CCN(c4nccc(-c5csc(C67CCC(CNC(=O)c8cc(F)c(O)c(F)c8F)(CC6)CC7)n5)n4)CC3)cc21` (racemic) [Example 5, N-{[4-(4-{2-[4-(3-{1-[(3RS)-2,6-Dioxopiperidin-3-yl]-3-methyl-2-oxo-2,3-dihydro-1H-benzimidazol-5-yl}propyl)piperazin-1-yl]pyrimidin-4-yl}-1,3-thiazol-2-yl)bicyclo[2.2.2]octan-1-yl]methyl}-2,3,5-trifluoro-4-hydroxybenzamide], the DC50 was 0.31 nM and the “Huh7_HIBIT-HSD17β13_DC50 GMean Asymptote Maximum” value was 82%.
With `Cn1c(=O)n(C2CCC(=O)NC2=O)c2ccc(CCCN3CCN(c4ccc5cn([C@]67CC[C@](CNC(=O)c8cc(F)c(O)c(F)c8F)(CC6)CC7)nc5c4)CC3)cc21` (mixture of isomers) [Example 94, N-[(4-{6-[4-(3-{1-[(3RS)-2,6-dioxopiperidin-3-yl]-3-methyl-2-oxo-2,3-dihydro-1H-benzimidazol-5-yl}propyl)piperazin-1-yl]-2H-indazol-2-yl}bicyclo[2.2.2]octan-1-yl)methyl]-2,3,5-trifluoro-4-hydroxybenzamide] the DC50 was 0.21 nM and the “Huh7_HIBIT-HSD17β13_DC50 GMean Asymptote Maximum” value was 84%.
With `Cn1nc(N2CCC(=O)NC2=O)c2ccc(CCCN3CCN(c4nccc(-c5nc([C@]67CC[C@](CNC(=O)c8cc(F)c(O)c(F)c8F)(CC6)CC7)no5)n4)CC3)cc21` [Example 133, N-[(4-{5-[2-(4-{3-[3-(2,4-dioxo-1,3-diazinan-1-yl)-1-methyl-1H-indazol-6-yl]propyl}piperazin-1-yl)pyrimidin-4-yl]-1,2,4-oxadiazol-3-yl}bicyclo[2.2.2]octan-1-yl)methyl]-2,3,5-trifluoro-4-hydroxybenzamide, trifluoroacetate salt] the DC50 was 2.1 nM and the “Huh7_HIBIT-HSD17β13_DC50 GMean Asymptote Maximum” value was 73%.
With `Cc1ccc(C(=O)N2CCC(CN3CCN(c4ccc(-c5ccc6cn([C@H]7CC[C@H](CNC(=O)c8cc(F)c(O)c(F)c8F)CC7)nc6c5)nn4)CC3)CC2)cc1N1CCC(=O)NC1=O` [Example 49, N-{[(1r,4r)-4-(6-{6-[4-({1-[3-(2,4-dioxo-1,3-diazinan-1-yl)-4-methylbenzoyl]piperidin-4-yl}methyl)piperazin-1-yl]pyridazin-3-yl}-2H-indazol-2-yl)cyclohexyl]methyl}-2,3,5-trifluoro-4-hydroxybenzamide, trifluoroacetate salt] the DC50 was 3.7 nM and the “Huh7_HIBIT-HSD17β13_DC50 GMean Asymptote Maximum” value was 82%.
In the case of `Cc1ccc(C(=O)N2CCC3(CC2)C[C@@H](N2CCN(c4ncc(-c5ccc6cn([C@H]7CC[C@H](CNC(=O)c8cc(F)c(O)c(F)c8F)CC7)nc6c5)cn4)CC2)CO3)cc1N1CCC(=O)NC1=O` [Example 68, N-{[(1r,4r)-4-{6-[2-(4-{(3R)-8-[3-(2,4-dioxo-1,3-diazinan-1-yl)-4-methylbenzoyl]-1-oxa-8-azaspiro[4.5]decan-3-yl}piperazin-1-yl)pyrimidin-5-yl]-2H-indazol-2-yl}cyclohexyl]methyl}-2,3,5-trifluoro-4-hydroxybenzamide, trifluoroacetate salt], the DC50 is reported as 1.7 nM and the “Huh7_HIBIT-HSD17β13_DC50 GMean Asymptote Maximum” value is reported as 79%.
`Cc1ccc(C(=O)N2CCN(C3CCN(c4ncc(-c5ccc6cn([C@H]7CC[C@H](CNC(=O)c8cc(F)c(O)c(F)c8F)CC7)nc6c5)cn4)CC3)CC2)cc1N1CCC(=O)NC1=O` [Example 90, N-{[(1r,4r)-4-{6-[2-(4-{4-[3-(2,4-dioxo-1,3-diazinan-1-yl)-4-methylbenzoyl]piperazin-1-yl}piperidin-1-yl)pyrimidin-5-yl]-2H-indazol-2-yl}cyclohexyl]methyl}-2,3,5-trifluoro-4-hydroxybenzamide] was tested, and the DC50 was 6.1 nM and the “Huh7_HIBIT-HSD17β13_DC50 GMean Asymptote Maximum” value was 60* %.
For `COc1cc(-c2nc([C@]34CC[C@](CNC(=O)c5cc(F)c(O)c(F)c5F)(CC3)CC4)no2)nc(N2CCN(CCCc3ccc4c(c3)n(C)c(=O)n4C3CCC(=O)NC3=O)CC2)n1` (mixture of isomers) [Example 128, N-{[4-(5-{2-[4-(3-{1-[(3RS)-2,6-dioxopiperidin-3-yl]-3-methyl-2-oxo-2,3-dihydro-1H-benzimidazol-5-yl}propyl)piperazin-1-yl]-6-methoxypyrimidin-4-yl}-1,2,4-oxadiazol-3-yl)bicyclo[2.2.2]octan-1-yl]methyl}-2,3,5-trifluoro-4-hydroxybenzamide], the DC50 was 0.4 nM and the “Huh7_HIBIT-HSD17β13_DC50 GMean Asymptote Maximum” value was 79%.
In the case of `O=C1CCN(c2cnc3cc(CN4CCN(c5ncc(-c6ccc7cn([C@H]8CC[C@H](CNC(=O)c9cc(F)c(O)c(F)c9F)CC8)nc7c6)cn5)CC4)ccn23)C(=O)N1` [Example 50, N-{[(1r,4r)-4-{6-[2-(4-{[3-(2,4-dioxo-1,3-diazinan-1-yl)imidazo[1,2-a]pyridin-7-yl]methyl}piperazin-1-yl)pyrimidin-5-yl]-2H-indazol-2-yl}cyclohexyl]methyl}-2,3,5-trifluoro-4-hydroxybenzamide, trifluoroacetate salt], the DC50 is reported as 0.91 nM and the “Huh7_HIBIT-HSD17β13_DC50 GMean Asymptote Maximum” value is reported as 85%.
For `Cn1c(=O)n(C2CCC(=O)NC2=O)c2ccc(CCCN3Cc4cnc(-c5ccc6cn([C@H]7CC[C@H](CNC(=O)c8cc(F)c(O)c(F)c8F)CC7)nc6c5)nc4C3)cc21` (mixture of isomers) [Example 86, N-{[(1r,4r)-4-{6-[6-(3-{1-[(3RS)-2,6-dioxopiperidin-3-yl]-3-methyl-2-oxo-2,3-dihydro-1H-benzimidazol-5-yl}propyl)-6,7-dihydro-5H-pyrrolo[3,4-d]pyrimidin-2-yl]-2H-indazol-2-yl}cyclohexyl]methyl}-2,3,5-trifluoro-4-hydroxybenzamide], the DC50 was 0.27 nM and the “Huh7_HIBIT-HSD17β13_DC50 GMean Asymptote Maximum” value was 78%.
For `Cn1c(=O)n(C2CCC(=O)NC2=O)c2ccc(C3CC4(CCN(c5ncc(-c6ccc7cn([C@H]8CC[C@H](CNC(=O)c9cc(F)c(O)c(F)c9F)CC8)nc7c6)cn5)CC4)C3)cc21` (mixture of isomers) [Example 80, N-{[(1r,4r)-4-{6-[2-(2-{1-[(3RS)-2,6-dioxopiperidin-3-yl]-3-methyl-2-oxo-2,3-dihydro-1H-benzimidazol-5-yl}-7-azaspiro[3.5]nonan-7-yl)pyrimidin-5-yl]-2H-indazol-2-yl}cyclohexyl]methyl}-2,3,5-trifluoro-4-hydroxybenzamide, trifluoroacetate salt], the DC50 was 1.4 nM and the “Huh7_HIBIT-HSD17β13_DC50 GMean Asymptote Maximum” value was 84%.
For `O=C1CCN(c2cnc3cc(CCCN4CCN(c5ccc6cn([C@H]7CC[C@H](CNC(=O)c8cc(F)c(O)c(F)c8F)CC7)nc6c5)CC4)ccn23)C(=O)N1` [Example 47, N-({(1r,4r)-4-[6-(4-{3-[3-(2,4-dioxo-1,3-diazinan-1-yl)imidazo[1,2-a]pyridin-7-yl]propyl}piperazin-1-yl)-2H-indazol-2-yl]cyclohexyl}methyl)-2,3,5-trifluoro-4-hydroxybenzamide, trifluoroacetate salt], the DC50 was 4.3 nM and the “Huh7_HIBIT-HSD17β13_DC50 GMean Asymptote Maximum” value was 78%.
For `Cl.Cn1c(=O)n(C2CCC(=O)NC2=O)c2ccc(CN3CCN(c4ncc(-c5ccc6cn([C@H]7CC[C@H](CNC(=O)c8cc(F)c(O)c(F)c8F)CC7)nc6c5)cn4)CC3)cc21` (mixture of isomers) [Example 26, N-{[(1r,4r)-4-(6-{2-[4-({1-[(3RS)-2,6-dioxopiperidin-3-yl]-3-methyl-2-oxo-2,3-dihydro-1H-benzimidazol-5-yl}methyl)piperazin-1-yl]pyrimidin-5-yl}-2H-indazol-2-yl)cyclohexyl]methyl}-2,3,5-trifluoro-4-hydroxybenzamide, hydrochloride salt], the DC50 was 0.5 nM and the “Huh7_HIBIT-HSD17β13_DC50 GMean Asymptote Maximum” value was 82%.
